Assay results from PubChem BioAssay (NCI).
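Each compound was tested at five concentrations against cells in 96-well plates for 48 hours. Here, GI50 denotes the concentration required for 50% inhibition of growth. The concentration for full growth arrest is given as TGI.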

Columns and labels:
Assay in all cases: DTP human tumour cell line panel, 48 h
SF-295 CNS = system: SF-295 CNS
MOLT-4 leukemia = system: MOLT-4 leukemia
A549 NSCLC = system: A549 NSCLC
OVCAR-5 ovarian = system: OVCAR-5 ovarian
U251 CNS = system: U251 CNS
MCF7 breast = system: MCF7 breast
BT-549 breast = system: BT-549 breast
HT29 colon = system: HT29 colon
TK-10 renal = system: TK-10 renal
A498 renal = system: A498 renal
SK-OV-3 ovarian = system: SK-OV-3 ovarian
HOP-92 NSCLC = system: HOP-92 NSCLC
NCI-H226 lung = system: NCI-H226 lung
DU-145 prostate = system: DU-145 prostate
ACHN renal = system: ACHN renal
MDA-MB-231 breast = system: MDA-MB-231 breast
OVCAR-8 ovarian = system: OVCAR-8 ovarian
SF-539 CNS = system: SF-539 CNS
HCT-15 colon = system: HCT-15 colon
HCC-2998 colon = system: HCC-2998 colon
SF-268 CNS = system: SF-268 CNS
MDA-MB-435 = system: MDA-MB-435
HCT-116 colon = system: HCT-116 colon
UACC-62 melanoma = system: UACC-62 melanoma
IGROV1 ovarian = system: IGROV1 ovarian
NCI/ADR-RES ovarian = system: NCI/ADR-RES ovarian
SK-MEL-28 melanoma = system: SK-MEL-28 melanoma
SW-620 colon = system: SW-620 colon
K-562 leukemia = system: K-562 leukemia
NCI-H460 lung = system: NCI-H460 lung
PC-3 prostate = system: PC-3 prostate
T-47D breast = system: T-47D breast
LOX IMVI melanoma = system: LOX IMVI melanoma
RPMI-8226 leukemia = system: RPMI-8226 leukemia
SK-MEL-2 melanoma = system: SK-MEL-2 melanoma
MALME-3M melanoma = system: MALME-3M melanoma
HS 578T breast = system: HS 578T breast
NCI-H23 lung = system: NCI-H23 lung
NCI-H522 lung = system: NCI-H522 lung
SNB-75 CNS = system: SNB-75 CNS
SNB-19 CNS = system: SNB-19 CNS
KM12 colon = system: KM12 colon
SK-MEL-5 melanoma = system: SK-MEL-5 melanoma
UO-31 renal = system: UO-31 renal
M14 melanoma = system: M14 melanoma
EKVX NSCLC = system: EKVX NSCLC
OVCAR-4 ovarian = system: OVCAR-4 ovarian
SN12C renal = system: SN12C renal
COLO 205 colon = system: COLO 205 colon
HL-60(TB) leukemia = system: HL-60(TB) leukemia
HOP-62 NSCLC = system: HOP-62 NSCLC
CCRF-CEM leukemia = system: CCRF-CEM leukemia
RXF 393 renal = system: RXF 393 renal
786-0 renal = system: 786-0 renal
CAKI-1 renal = system: CAKI-1 renal
OVCAR-3 ovarian = system: OVCAR-3 ovarian
UACC-257 melanoma = system: UACC-257 melanoma

Structure (SMILES): COc1cc2cc(Oc3ccc(NC(=O)Nc4ccc(Cl)c(C(F)(F)F)c4)cc3)c(C)nc2cc1OCCN1CCOCC1
- GI50 (SF-295 CNS): 1.19 µM
- TGI (SF-295 CNS): 2.85 µM
- GI50 (MOLT-4 leukemia): 1.48 µM
- TGI (MOLT-4 leukemia): 10.5 µM
- GI50 (A549 NSCLC): 2.13 µM
- TGI (A549 NSCLC): > 100 µM
- GI50 (OVCAR-5 ovarian): 4.02 µM
- TGI (OVCAR-5 ovarian): 65.2 µM
- GI50 (U251 CNS): 1.76 µM
- TGI (U251 CNS): 3.89 µM
- GI50 (MCF7 breast): 1.26 µM
- TGI (MCF7 breast): 3.33 µM
- GI50 (BT-549 breast): 2.63 µM
- TGI (BT-549 breast): 9.33 µM
- GI50 (HT29 colon): 2.57 µM
- TGI (HT29 colon): 11.2 µM
- GI50 (TK-10 renal): 4.97 µM
- TGI (TK-10 renal): 35.2 µM
- GI50 (A498 renal): 2.45 µM
- TGI (A498 renal): 9.62 µM
- GI50 (SK-OV-3 ovarian): 3.34 µM
- TGI (SK-OV-3 ovarian): 17.5 µM
- GI50 (HOP-92 NSCLC): 1.66 µM
- TGI (HOP-92 NSCLC): 6.16 µM
- GI50 (NCI-H226 lung): 1.86 µM
- TGI (NCI-H226 lung): 5.91 µM
- GI50 (DU-145 prostate): 2.69 µM
- TGI (DU-145 prostate): 13.8 µM
- GI50 (ACHN renal): 2.03 µM
- TGI (ACHN renal): 11.6 µM
- GI50 (MDA-MB-231 breast): 2 µM
- TGI (MDA-MB-231 breast): 5.07 µM
- GI50 (OVCAR-8 ovarian): 2.67 µM
- TGI (OVCAR-8 ovarian): > 100 µM
- GI50 (SF-539 CNS): 1.68 µM
- TGI (SF-539 CNS): 3.26 µM
- GI50 (HCT-15 colon): 1.45 µM
- TGI (HCT-15 colon): 3.18 µM
- GI50 (HCC-2998 colon): 3.68 µM
- TGI (HCC-2998 colon): 11.1 µM
- GI50 (SF-268 CNS): 2.59 µM
- TGI (SF-268 CNS): 8.44 µM
- GI50 (MDA-MB-435): 1.94 µM
- TGI (MDA-MB-435): 4.1 µM
- GI50 (HCT-116 colon): 1.2 µM
- TGI (HCT-116 colon): 10.8 µM
- GI50 (UACC-62 melanoma): 1.36 µM
- TGI (UACC-62 melanoma): 3.46 µM
- GI50 (IGROV1 ovarian): 2.43 µM
- TGI (IGROV1 ovarian): 23.2 µM
- GI50 (NCI/ADR-RES ovarian): 2.34 µM
- TGI (NCI/ADR-RES ovarian): 12.6 µM
- GI50 (SK-MEL-28 melanoma): 1.55 µM
- TGI (SK-MEL-28 melanoma): 3.12 µM
- GI50 (SW-620 colon): 2.31 µM
- TGI (SW-620 colon): 5.52 µM
- GI50 (K-562 leukemia): 0.669 µM
- TGI (K-562 leukemia): 6.95 µM
- GI50 (NCI-H460 lung): 1.65 µM
- TGI (NCI-H460 lung): 3.62 µM
- GI50 (PC-3 prostate): 1.36 µM
- TGI (PC-3 prostate): 6 µM
- GI50 (T-47D breast): 1.32 µM
- TGI (T-47D breast): 5.2 µM
- GI50 (LOX IMVI melanoma): 1.39 µM
- TGI (LOX IMVI melanoma): 2.81 µM
- GI50 (RPMI-8226 leukemia): 0.936 µM
- TGI (RPMI-8226 leukemia): 4.34 µM
- GI50 (SK-MEL-2 melanoma): 1.65 µM
- TGI (SK-MEL-2 melanoma): 4.06 µM
- GI50 (MALME-3M melanoma): 1.52 µM
- TGI (MALME-3M melanoma): 3.27 µM
- GI50 (HS 578T breast): 1.83 µM
- TGI (HS 578T breast): 5.11 µM
- GI50 (NCI-H23 lung): 1.12 µM
- TGI (NCI-H23 lung): 3.89 µM
- GI50 (NCI-H522 lung): 1.43 µM
- TGI (NCI-H522 lung): 4.07 µM
- GI50 (SNB-75 CNS): 1.65 µM
- TGI (SNB-75 CNS): 7.05 µM
- GI50 (SNB-19 CNS): 3.23 µM
- TGI (SNB-19 CNS): 19.8 µM
- GI50 (KM12 colon): 1.91 µM
- TGI (KM12 colon): 5.3 µM
- GI50 (SK-MEL-5 melanoma): 1.14 µM
- TGI (SK-MEL-5 melanoma): 2.37 µM
- GI50 (UO-31 renal): 1.4 µM
- TGI (UO-31 renal): 3.34 µM
- GI50 (M14 melanoma): 1.52 µM
- TGI (M14 melanoma): 3.45 µM
- GI50 (EKVX NSCLC): 2.07 µM
- TGI (EKVX NSCLC): 13.7 µM
- GI50 (OVCAR-4 ovarian): 0.582 µM
- TGI (OVCAR-4 ovarian): 3.41 µM
- GI50 (SN12C renal): 2.56 µM
- TGI (SN12C renal): 56.2 µM
- GI50 (COLO 205 colon): 1.63 µM
- TGI (COLO 205 colon): 3.78 µM
- GI50 (HL-60(TB) leukemia): 2.32 µM
- TGI (HL-60(TB) leukemia): 7.55 µM
- GI50 (HOP-62 NSCLC): 2.05 µM
- TGI (HOP-62 NSCLC): 4.55 µM
- GI50 (CCRF-CEM leukemia): 1.45 µM
- TGI (CCRF-CEM leukemia): > 100 µM
- GI50 (RXF 393 renal): 1.77 µM
- TGI (RXF 393 renal): 3.99 µM
- GI50 (786-0 renal): 1.89 µM
- TGI (786-0 renal): 4.15 µM
- GI50 (CAKI-1 renal): 1.8 µM
- TGI (CAKI-1 renal): 10.8 µM
- GI50 (OVCAR-3 ovarian): 1.52 µM
- TGI (OVCAR-3 ovarian): 3.47 µM
- GI50 (UACC-257 melanoma): 1.57 µM
- TGI (UACC-257 melanoma): 4.55 µM
